Experimental data as given in the Deep4Chem optical property database.
Values belong to the compound of their own block, whether it stands above or below them.

Assay: solvent given as SMILES

emission maximum (in CC1CCCCC1): 445 nm
Compound: CC(C)(C)c1ccc2cc3c4cccc5cccc(c6cc(C(C)(C)C)cc(c2c1)c63)c54

emission maximum (in CC#N): 426 nm
emission maximum (in CN(C)C=O): 432 nm
emission maximum (in ClCCl): 461 nm
Compound: CCN(CC)c1ccc(/C=N/C2CCCCC2/N=C/c2ccc(N(CC)CC)cc2O)c(O)c1 (stereo not given)

emission maximum (in ClC(Cl)Cl): 495 nm
Compound: CCCCCCN1C(=O)c2cccc3c(-c4ccc(-c5ccc6c7c(cccc57)C(=O)N(CCCCCC)C6=O)s4)ccc(c23)C1=O

emission maximum (in ClCCl): 482 nm
Compound: Cc1c(C(=O)c2ccccc2Cl)c2ccc3cccc4c5cccc6ccc1c(c65)c2c34

emission maximum (in CC#N): 543 nm
Compound: CC1=[N+]2C(=C(c3ccccc3)c3c4c(c(C)n3[B-]2(F)F)C2CCC4CC2)C2=C1C1CCC2CC1

emission maximum (in ClC(Cl)Cl): 449 nm
Compound: COc1ccc(C2CC(=O)Oc3c2c2nc4ccccc4nc2c2ccccc32)cc1 (stereo not given)

emission maximum (in ClCCl): 580 nm
Compound: Nc1cccc2c1ccc1[n+]2[B-](F)(F)n2c-1cc1c3ccccc3c3ccccc3c12

emission maximum (in CC#N): 471 nm
Compound: Oc1ccc2ccccc2c1/C=N/C1CCCCC1/N=C/c1c(O)ccc2ccccc12 (stereo not given)

emission maximum (in C1CCCCC1): 455 nm
Compound: N#Cc1c(-c2ccccc2)cc(N2c3ccccc3Oc3ccccc32)cc1-c1ccccc1

emission maximum (in ClC(Cl)Cl): 431 nm
Compound: O=C1CC(c2ccccc2)c2c(c3ccccc3c3nc4ccccc4nc23)O1 (stereo not given)

emission maximum (in CO): 717 nm
emission maximum (in CS(C)=O): 727 nm
Compound: CCC1=C(C)C2=Cc3c4ccccc4c4n3[B-](c3cc[n+](C)cc3)(Oc3ccccc3-4)[N+]2=C1C=Cc1ccc(OC)cc1 (stereo not given)

emission maximum (in ClCCl): 422 nm
Compound: COc1cc2c(cc1OC)C1=C[C@H](c3ccccc3)C3(C(C(=O)O[C@@H]4C[C@H]5CC[C@@H]4C5)=C(C(=O)O[C@H]4C[C@@H]5CC[C@H]4C5)N1CC2)c1ccccc1-c1ccccc13

emission maximum (in ClCCl): 515 nm
Compound: CN(C)c1ccc(/C=C/c2cnc(C#Cc3ccc(C#N)cc3)o2)cc1

emission maximum (in CCO): 564 nm
emission maximum (in O): 572 nm
Compound: CN(C)c1ccc2c(-c3ccc(N)cc3C(=O)[O-])c3ccc(=[N+](C)C)cc-3oc2c1

emission maximum (in CCO): 439 nm
Compound: O=c1c2cc(F)c(O)cc2oc2cc(O)c(F)cc12

emission maximum (in O): 397 nm
Compound: CCn1c(-c2ccc(-c3ccc(-c4ccc(-c5n(CC)c6ccccc6[n+]5CC)cc4)cc3)cc2)[n+](CC)c2ccccc21

emission maximum (in CC#N): 498 nm
emission maximum (in CCO): 407 nm
emission maximum (in CN(C)C=O): 402 nm
emission maximum (in ClCCl): 472 nm
Compound: c1ccc(-c2csc(-c3ccncc3)n2)cc1

emission maximum (in ClCCl): 503 nm
Compound: C[Si]1(C)O[Si](C)(C)c2cc3c(-c4ccc(F)cc4)c4ccccc4nc3cc21

emission maximum (in C1COCCO1): 375 nm
Compound: c1ccc(-c2ccc(-c3ccc(-c4cc(-c5ccc(-c6ccc(-c7ccccc7)cc6)cc5)cc(-c5ccc(-c6ccc(-c7ccccc7)cc6)cc5)c4)cc3)cc2)cc1

emission maximum (in CC#N): 582 nm
emission maximum (in ClCCl): 571 nm
Compound: CCOC(=O)c1ccc2nc(/N=N/c3ccc(N(CC)CC)cc3)sc2c1

emission maximum (in CC#N): 480 nm
Compound: O=c1oc2cc(S(=O)(=O)O)c3ccccc3c2nc1-c1ccccc1

emission maximum (in ClCCl): 447 nm
Compound: COc1ccc(-c2ccc(/C=C/c3ccncn3)cc2)cc1

emission maximum (in C1CCCCC1): 448 nm
emission maximum (in CO): 500 nm
emission maximum (in CS(C)=O): 482 nm
emission maximum (in ClC(Cl)Cl): 448 nm
emission maximum (in c1ccccc1): 441 nm
Compound: CCCCCCCC1=C(C)C(=O)n2c1cc1[nH]c(C(=O)OC)c(C)c1c2=O

The next lines start with the compound.

Compound: COc1ccc(-c2cn3cc(C)c[n+]3[n-]2)cc1
emission maximum (in ClCCl): 421 nm

Compound: COc1ccc(N(c2ccc(/C=C(\C)c3ccccc3)cc2)c2ccc(/C=C(\C)c3ccccc3)cc2)cc1
emission maximum (in Cc1ccccc1): 435 nm

Compound: Cc1ccc(N(c2ccc(C)cc2)c2ccc(-c3ccc(C=C(C#N)C#N)cc3)cc2)cc1
emission maximum (in ClC(Cl)Cl): 676 nm

Compound: O=c1oc2ccccc2nc1-c1ccccc1
emission maximum (in c1ccccc1): 450 nm

Compound: COc1cc(OC)cc(C2=C3C(C)=C(I)C(C)=[N+]3[B-](F)(F)n3c(/C=C/c4ccsc4)c(I)c(C)c32)c1
emission maximum (in C1CCOC1): 610 nm
emission maximum (in CS(C)=O): 621 nm
emission maximum (in ClCCl): 610 nm

Compound: COC(=O)CCC1=CC(C#Cc2ccsc2)=[N+]2C1=Cc1c(CCC(=O)OC)cc(C#Cc3ccsc3)n1[B-]2(F)F
emission maximum (in ClCCl): 653 nm

Compound: CC1=NN(c2ccccc2)C(=O)/C1=C/c1cn(-c2ccccc2)nc1-c1ccccc1
emission maximum (in C1CCOC1): 429 nm
emission maximum (in C1COCCO1): 407 nm
emission maximum (in CCO): 427 nm
emission maximum (in CCOC(C)=O): 422 nm
emission maximum (in CN(C)C=O): 435 nm
emission maximum (in CO): 430 nm
emission maximum (in CS(C)=O): 437 nm
emission maximum (in Cc1ccccc1): 416 nm
emission maximum (in ClC(Cl)Cl): 432 nm
emission maximum (in ClCCl): 436 nm

Compound: c1ccc(-c2nnc(-c3cc(-c4nnc(-c5ccccc5)o4)c(-n4c5ccccc5c5ccccc54)cc3-n3c4ccccc4c4ccccc43)o2)cc1
emission maximum (in Cc1ccccc1): 439 nm
emission maximum (in O=P(c1ccccc1)(c1ccccc1)c1ccccc1Oc1ccccc1P(=O)(c1ccccc1)c1ccccc1): 459 nm

Compound: c1ccc2c(-c3cc4c(ccc5sccc54)s3)cccc2c1
emission maximum (in ClCCl): 405 nm

Compound: CCCCCCCCCCC(CCCCCCCCCC)Cn1c2cc(-c3ccc(C(C)(C)C)cc3)c3cccc4c5ccc6c7cc(-c8cc(C(C)(C)C)cc(C(C)(C)C)c8)n8c7c(c7cc1c(c5c76)c2c34)=C1C=CC(c2cc(C(C)(C)C)cc(C(C)(C)C)c2)=[N+]1[B-]8(F)F
emission maximum (in Cc1ccccc1): 830 nm

Compound: N#Cc1ccc(-n2c3ccccc3c3c2c2ccccc2n3-c2ccccc2)cc1
emission maximum (in Cc1ccccc1): 460 nm

Compound: CCCCCCCCN1c2ccccc2Sc2cc(/C=C/c3ccc(N(c4ccc(/C=C/c5ccc6c(c5)Sc5ccccc5N6CCCCCCCC)cc4)c4ccc(/C=C/c5ccc(/C=C/c6ccc(N(c7ccc(/C=C/c8ccc9c(c8)Sc8ccccc8N9CCCCCCCC)cc7)c7ccc(/C=C/c8ccc9c(c8)Sc8ccccc8N9CCCCCCCC)cc7)cc6)c6nsnc56)cc4)cc3)ccc21
emission maximum (in C1CCOC1): 654 nm
emission maximum (in CCOC(C)=O): 644 nm
emission maximum (in CN(C)C=O): 750 nm
emission maximum (in Cc1ccccc1): 620 nm
emission maximum (in ClC(Cl)Cl): 663 nm
emission maximum (in ClCCl): 710 nm

Compound: COC(=O)C(Cc1ccc2oc(-c3ccc(-n4c5ccccc5c5ccccc54)cc3)nc2c1)NC(=O)OC(C)(C)C (stereo not given)
emission maximum (in C1CCCCC1): 362 nm
emission maximum (in C1CCOC1): 429 nm
emission maximum (in C1COCCO1): 400 nm
emission maximum (in CC1CCCO1): 404.01 nm
emission maximum (in CC#N): 447.01 nm
emission maximum (in CC(C)(C)O): 421 nm
emission maximum (in CC(C)=O): 432.99 nm
emission maximum (in CC(C)CC(C)(C)C): 361.01 nm
emission maximum (in CC(C)O): 431 nm
emission maximum (in CC(O)CO): 455 nm
emission maximum (in CCCCCCCO): 421.99 nm
emission maximum (in CCCCCCO): 424 nm
emission maximum (in CCCCCO): 409 nm
emission maximum (in CCCCO): 430 nm
emission maximum (in CCO): 445 nm
emission maximum (in CCOC(C)=O): 409 nm
emission maximum (in CCOCC): 402.32 nm
emission maximum (in CN(C)C=O): 438.02 nm
emission maximum (in CO): 465.98 nm
emission maximum (in CS(C)=O): 445.99 nm
emission maximum (in Cc1ccccc1): 391.01 nm
emission maximum (in OCCO): 470.01 nm

Compound: c1ccc(-c2nnc(-c3ccc(N4c5ccccc5Oc5ccccc54)cc3)o2)cc1
emission maximum (in Cc1ccccc1): 495 nm
emission maximum (in c1ccc(-n2c(-c3c(-n4c5ccccc5c5ccccc54)cccc3-n3c4ccccc4c4ccccc43)nc3ccccc32)cc1): 498 nm

Compound: COc1ccc(C2=[N+]3C(=Nc4c(-c5cc(OC)c(OC)c(OC)c5)c(Br)c(-c5ccc(OC)cc5)n4[B-]3(F)F)C(c3cc(OC)c(OC)c(OC)c3)=C2Br)cc1
emission maximum (in Cc1ccccc1): 723 nm

Compound: O=C1c2cc(-n3c4ccccc4c4ccccc43)c(-n3c4ccccc4c4ccccc43)cc2C(=O)N1c1ccccc1
emission maximum (in Cc1ccccc1): 510 nm

Compound: O=c1oc2ccccc2cc1-c1ccc(-c2cc3ccccc3oc2=O)cc1
emission maximum (in CC#N): 426 nm
emission maximum (in CCO): 426 nm
emission maximum (in CCOC(C)=O): 426 nm
emission maximum (in CS(C)=O): 430 nm
emission maximum (in Cc1ccccc1): 424 nm
emission maximum (in ClC(Cl)Cl): 430 nm

Compound: CC(C)(C)Nc1c(-c2ccc(-c3cc(=O)cc(-c4ccccc4)o3)cc2)nc2ccccn12
emission maximum (in ClCCl): 515 nm

Compound: CN(C)c1cccc2c1ccc1c(=O)oc(-c3ccc(C(F)(F)F)cc3)cc12
emission maximum (in CC(C)=O): 611 nm
emission maximum (in CCCCCCCCO): 585 nm
emission maximum (in CCCCO): 586 nm
emission maximum (in CCCO): 591 nm
emission maximum (in CCO): 602 nm
emission maximum (in CCOC(C)=O): 578 nm
emission maximum (in CN(C)C=O): 614 nm
emission maximum (in CO): 612 nm
emission maximum (in ClC(Cl)Cl): 538 nm

Compound: O=S(=O)([O-])c1ccc(/C=C/c2ccc(-c3nnc(-c4ccc(/C=C/c5ccc(S(=O)(=O)[O-])cc5S(=O)(=O)[O-])cc4)o3)cc2)c(S(=O)(=O)[O-])c1
emission maximum (in C1CCOC1): 416 nm
emission maximum (in CC(C)=O): 415 nm
emission maximum (in CN(C)C=O): 430 nm

Compound: COc1ccc(/C=C/c2cc(/C=C/c3ccc(OC)cc3)nc(/C=C/c3ccc(C(F)(F)F)cc3)n2)cc1
emission maximum (in C1CCOC1): 436 nm
emission maximum (in CC#N): 463 nm
emission maximum (in CC(C)=O): 452 nm
emission maximum (in CCCCCCC): 398 nm
emission maximum (in CS(C)=O): 475 nm
emission maximum (in Cc1ccccc1): 411 nm
emission maximum (in ClCCl): 441 nm

Compound: F[B-]1(F)OC(c2ccc(C(F)(F)F)cc2)=Cc2c3ccccc3c3ccccc3[n+]21
emission maximum (in ClC(Cl)Cl): 446 nm

Compound: CCC1=C(C)C(=O)n2c1cc1c(C)c(CCC(=O)OC)c(C)n1c2=O
emission maximum (in CO): 530 nm
emission maximum (in CS(C)=O): 505 nm
emission maximum (in ClC(Cl)Cl): 495 nm
emission maximum (in c1ccccc1): 470 nm

Compound: C(=C1c2ccccc2CCc2ccccc21)c1ccc(-c2cc(-c3ccc(C=C4c5ccccc5CCc5ccccc54)cc3)cc(-c3ccc(C=C4c5ccccc5CCc5ccccc54)cc3)c2)cc1
emission maximum (in C1CCOC1): 403 nm

Compound: CC(C)(C)c1ccc2c(c1)oc1nc3oc4ccc(-n5c6ccccc6c6ccccc65)cc4c3cc12
emission maximum (in ClC(Cl)Cl): 417 nm

Compound: CCC1(CC)c2cc(B(c3c(C)cc(C)cc3C)c3c(C)cc(C)cc3C)ccc2-c2ccc(N(c3ccccc3)c3ccccc3)cc21
emission maximum (in C1CCOC1): 482 nm
emission maximum (in CC#N): 531 nm
emission maximum (in CC(C)=O): 499 nm
emission maximum (in CCCCCC): 423 nm
emission maximum (in CN(C)C=O): 532 nm
emission maximum (in Cc1ccccc1): 448 nm
emission maximum (in ClC(Cl)Cl): 461 nm
